Laboratory results from PubChem BioAssay AID1845205 (Molecular Pharmacology Branch, DTP, NCI, 2023).

System: MPNST multicellular tumor spheroids, viability % test/control
Assay: Anticancer human tumor MPNST cell line growth inhibition;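 also: spheroids exposed to agents for seven days after three days of growth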;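 as to viability, T/C: luminescence signal used as surrogate for viable cell amount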
Settings: for IC50: curve of first compound; for viability, T/C: stronger effect = lower value
Excerpt: Multicellular complex tumor spheroid response to DNA repair inhibitors in combination with DNA-damaging drugs
This study explores the anticancer activities of DNA-damaging drugs and inhibitors of DNA damage repair, both as single agents and in combinations. Complex tumor spheroids comprised of malignant cells, endothelial cells and mesenchymal stem cells served as an in vitro model for human solid tumors. This model system incorporates physiologically relevant features and patient-derived or established malignant cell lines with clinically relevant genetic alterations from many tumor types. Twenty-six patient-derived or established malignant cell lines were evaluated representing sarcoma, melanoma, small cell lung cancer (SCLC), non-small cell lung cancer (NSCLC), as well as bladder, ovarian and pancreatic cancers. The concentration ranges selected for each drug and investigational agent were based upon clinically achievable concentrations if the clinical Cmax of the agent was known.
Compounds. The drugs and compounds olaparib (NSC753686), talazoparib (NSC767125), berzosertib (NSC777718), elimusertib (NSC800525), nedisertib (NSC802822), VX-984 (NSC792969), AZD-1390 (NSC803789), temozolomide (NSC362856), topotecan (NSC609699), trabectedin (NSC813783), staurosporine (NSC755774), and gemcitabine (NSC613327) were obtained from the National Cancer Institute (NCI) Developmental Therapeutics Program Chemical Repository. The FDA-approved anticancer drug set is available from the Developmental Therapeutics Program at https://dtp.cancer.gov/organization/dscb/obtaining/available_plates.htm. […] The stock solutions were prepared in dimethyl sulfoxide (DMSO, Sigma-Aldrich, St. Louis, MO, cat. D2650) at 400-fold the tested concentration and stored at -70 degrees C. Prior to their use, the stock solutions were diluted in fresh medium and the final DMSO concentration in the assay was 0.25% (v/v). All drugs and investigational agents were tested over a range starting from a high concentration at or near the clinical Cmax and decreasing in half-log increments. If the clinical Cmax for an agent had not been determined, the highest concentration tested was 10 microM.
Cell Lines. The patient-derived cancer cell (PDC) lines: 156681-154-R-J1-PDC, 283228-195-R-J1-PDC, 287954-098-R-J1-PDC, 292921-168-R-J2-PDC, 349418-098-R-PDC, 425362-245-T-J1-PDC, 556581-035-R-J1-PDC, and BL0293-F563-PDC were received from the NCI Patient-Derived Models Repository (PDMR, https://pdmr.cancer.gov). The established cell lines HS-SY-2 (RRID:CVCL_8719), MPNST, and SYO-1 (RRID:CVCL_7146) were obtained from the Sloan Kettering Institute. The alveolar soft parts sarcoma cell line ASPS-1 (RRID:CVCL_S738) was established at the NCI and grown from internal seed stocks. The following established cell lines were purchased from the American Type Culture Collection (ATCC, Manassas, VA): G-401 (ATCC, cat. CRL-1441, RRID:CVCL_0270), SW982 (ATCC, cat. HTB-93, RRID:CVCL_1734), VA-ES-BJ (ATCC, cat. CRL-2138, RRID:CVCL_1785), NCI-H719 (ATCC, cat. CRL-5837, RRID:CVCL_1582), NCI-H196 (ATCC, cat. CRL-5823, RRID:CVCL_1509), NCI-H841 (ATCC, cat. CRL-5845, RRID:CVCL_1595), NCI-H1618 (ATCC, cat. CRL-5879, RRID:CVCL_1480), NCI-H1876 (ATCC, cat. CRL-5902, RRID:CVCL_1503), DMS 114 (ATCC, cat. CRL-2066; RRID:CVCL_1174), NCI-H211 (ATCC, cat. CRL-5824; RRID:CVCL_1529), and SW 1271 (ATCC, cat. CRL-2177, RRID:CVCL_1716). The small cell lung cancer cell line COR-L88 was purchased from Sigma-Aldrich (cat. 92031917-1VL, RRID:CVCL_1141). The non-small cell lung cancer cell lines NCI-H226 (RRID:CVCL_1544) and NCI-H322M (RRID:CVCL_1557) were established at the NCI and grown from internal seed stocks. Pooled donor human umbilical vein endothelial cells (HUVEC, Lonza, cat. CC-2519) and human mesenchymal stem cells (hMSC, Lonza, cat. PT-2501) were purchased from Lonza (Walkersville, MD).
Cell Culture. All cells were maintained in an incubator at 37 degrees C and 5% CO2 with 95% humidity. […]

COc1ccc([C@@H](O)c2cc(-c3ncnc4cc(N5CCOCC5)ccc34)c(F)cc2Cl)nn1 + COc1cc2c(cc1O)CCNC21CSC2c3c(OC(C)=O)c(C)c4c(c3C(COC1=O)N1C(O)C3Cc5cc(C)c(OC)c(O)c5C(C21)N3C)OCO4 showed an IC50 (second compound 30 pM) of 171 nM, an IC50 (second compound 94.9 pM) of 531 nM and an IC50 (second compound 0.0003 µM) of 645 nM. The IC50 (second compound 0.000949 µM) was 174 nM, the IC50 (second compound 0.003 µM) was less than 31.6 nM and the viability, T/C (second compound 30 pM, first compound 0.0316 µM) was 97.1%. It also gave a viability, T/C (second compound 30 pM, first compound 0.1 µM) of 72%, a viability, T/C (second compound 30 pM, first compound 0.316 µM) of 24.1% and a viability, T/C (second compound 30 pM, first compound 1 µM) of 12.8%. It also gave a viability, T/C (second compound 30 pM, first compound 3.16 µM) of 5.82%, a viability, T/C (second compound 30 pM, first compound 10 µM) of 3.35% and a viability, T/C (second compound 94.9 pM, first compound 0.0316 µM) of 113%. The viability, T/C (second compound 94.9 pM, first compound 0.1 µM) was 74.7%, the viability, T/C (second compound 94.9 pM, first compound 0.316 µM) was 70.9% and the viability, T/C (second compound 94.9 pM, first compound 1 µM) was 39.6%. It also gave a viability, T/C (second compound 94.9 pM, first compound 3.16 µM) of 8.1%, a viability, T/C (second compound 94.9 pM, first compound 10 µM) of 3.63% and a viability, T/C (second compound 0.0003 µM, first compound 0.0316 µM) of 89.4%. It also gave a viability, T/C (second compound 0.0003 µM, first compound 0.1 µM) of 70.9%, a viability, T/C (second compound 0.0003 µM, first compound 0.316 µM) of 92.8% and a viability, T/C (second compound 0.0003 µM, first compound 1 µM) of 28.8%. It also gave a viability, T/C (second compound 0.0003 µM, first compound 3.16 µM) of 9.77%, a viability, T/C (second compound 0.0003 µM, first compound 10 µM) of 2.97% and a viability, T/C (second compound 0.000949 µM, first compound 0.0316 µM) of 84.4%. It also gave a viability, T/C (second compound 0.000949 µM, first compound 0.1 µM) of 48.4%, a viability, T/C (second compound 0.000949 µM, first compound 0.316 µM) of 55.4% and a viability, T/C (second compound 0.000949 µM, first compound 1 µM) of 14.4%. For the same molecule, the viability, T/C (second compound 0.000949 µM, first compound 3.16 µM) was 11.7%, the viability, T/C (second compound 0.000949 µM, first compound 10 µM) was 0.94% and the viability, T/C (second compound 0.003 µM, first compound 0.0316 µM) was 15.7%. For the same molecule, the viability, T/C (second compound 0.003 µM, first compound 0.1 µM) was 16.1%, the viability, T/C (second compound 0.003 µM, first compound 0.316 µM) was 8.56% and the viability, T/C (second compound 0.003 µM, first compound 1 µM) was 4.27%. It also gave a viability, T/C (second compound 0.003 µM, first compound 3.16 µM) of 2.63% and a viability, T/C (second compound 0.003 µM, first compound 10 µM) of 0.51%.
Molecule CNCc1ccc(-c2cc(-c3nc(-c4ccc(S(=O)(=O)C(C)C)cc4)cnc3N)on2)cc1 + CC[C@@]1(O)C(=O)OCc2c1cc1n(c2=O)Cc2cc3c(CN(C)C)c(O)ccc3nc2-1 has an IC50 (second compound 0.003 µM) greater than 3000 nM, an IC50 (second compound 0.00949 µM) greater than 3000 nM and an IC50 (second compound 0.03 µM) greater than 3000 nM. It also gave an IC50 (second compound 0.0949 µM) greater than 3000 nM, an IC50 (second compound 0.3 µM) of less than 9.49 nM and a viability, T/C (second compound 0.003 µM, first compound 0.00949 µM) of 104%. For the same molecule, the viability, T/C (second compound 0.003 µM, first compound 0.03 µM) was 99.3%, the viability, T/C (second compound 0.003 µM, first compound 0.0949 µM) was 71.8% and the viability, T/C (second compound 0.003 µM, first compound 0.3 µM) was 61.4%. It also gave a viability, T/C (second compound 0.003 µM, first compound 0.949 µM) of 64.3%, a viability, T/C (second compound 0.003 µM, first compound 3 µM) of 61.7% and a viability, T/C (second compound 0.00949 µM, first compound 0.00949 µM) of 75.6%. It also gave a viability, T/C (second compound 0.00949 µM, first compound 0.03 µM) of 74.3%, a viability, T/C (second compound 0.00949 µM, first compound 0.0949 µM) of 59.7% and a viability, T/C (second compound 0.00949 µM, first compound 0.3 µM) of 58%. The viability, T/C (second compound 0.00949 µM, first compound 0.949 µM) was 60.3%, the viability, T/C (second compound 0.00949 µM, first compound 3 µM) was 66.6% and the viability, T/C (second compound 0.03 µM, first compound 0.00949 µM) was 61.9%. The viability, T/C (second compound 0.03 µM, first compound 0.03 µM) was 55.1%, the viability, T/C (second compound 0.03 µM, first compound 0.0949 µM) was 53.8% and the viability, T/C (second compound 0.03 µM, first compound 0.3 µM) was 57.1%. It also gave a viability, T/C (second compound 0.03 µM, first compound 0.949 µM) of 63.7%, a viability, T/C (second compound 0.03 µM, first compound 3 µM) of 64.9% and a viability, T/C (second compound 0.0949 µM, first compound 0.00949 µM) of 57.7%. For the same molecule, the viability, T/C (second compound 0.0949 µM, first compound 0.03 µM) was 54.8%, the viability, T/C (second compound 0.0949 µM, first compound 0.0949 µM) was 56.8% and the viability, T/C (second compound 0.0949 µM, first compound 0.3 µM) was 64.7%. It also gave a viability, T/C (second compound 0.0949 µM, first compound 0.949 µM) of 58.1%, a viability, T/C (second compound 0.0949 µM, first compound 3 µM) of 70.7% and a viability, T/C (second compound 0.3 µM, first compound 0.00949 µM) of 46.1%. It also gave a viability, T/C (second compound 0.3 µM, first compound 0.03 µM) of 45%, a viability, T/C (second compound 0.3 µM, first compound 0.0949 µM) of 48.8% and a viability, T/C (second compound 0.3 µM, first compound 0.3 µM) of 50%. It also gave a viability, T/C (second compound 0.3 µM, first compound 0.949 µM) of 55.5% and a viability, T/C (second compound 0.3 µM, first compound 3 µM) of 52.7%.
